# Measurements reported in patent US20110177970A1, “METHODS FOR PREDICTING OR MONITORING WHETHER A PATIENT AFFECTED BY A CANCER IS RESPONSIVE TO A TREATMENT WITH A MOLECULE OF THE TAXOID FAMILY” (Inserm (Institut National de la Sante et de la Recherche …, priority 2008, published 2011).
# What was measured:
# [1] = tested on: parental IGR-CaP1 cells; experiment: WST1 cell proliferation assay, cytotoxic effect of docetaxel, parental cells; assay type: cell-based, human; conditions: docetaxel 1.25 nM to 50 nM, 72 h
# Excerpt: (§1) The data represent the mean of three different experiments, the error bars represent the SEM.
# (§2) Several clonally-derived cells were obtained from the parental IGR-CaP1 cells by limit dilutions.
# [2] = tested on: 3A11 clone (clonally-derived IGR-CaP1 cells); experiment: WST1 cell proliferation assay, cytotoxic effect of docetaxel, clone 3A11; assay type: cell-based, human
# Excerpt: as §1, §2
# [3] = tested on: 3B1 clone (clonally-derived IGR-CaP1 cells); experiment: WST1 cell proliferation assay, cytotoxic effect of docetaxel, clone 3B1; assay type: cell-based, human
# Excerpt: as §1, §2
# [4] = tested on: breast cancer metastatic tumours; conditions: cited from earlier work
# [5] = tested on: patients treated with docetaxel; conditions: from the beginning or in a secondary way; cited from earlier work
# [6] = tested on: docetaxel resistant cells; conditions: cited from earlier work
Structure (SMILES),cell proliferation (WST1) [1],"effect on proliferation compared to parental IGR-CaP1 cells ([2]; 3A11 clone vs parental, p<0.001)","cell proliferation (WST1) ([2]; 3A11 clone, docetaxel 1.25 nM to 50 nM, 72 h)","effect on proliferation compared to parental IGR-CaP1 cells ([3]; 3B1 clone vs parental, p<0.001)","cell proliferation (WST1) ([3]; 3B1 clone, docetaxel 1.25 nM to 50 nM, 72 h)",metastatic tumours that respond [4] [%],patients who develop a resistance to the chemotherapy [5],apoptosis [6],expression of clusterin [6]
CC(=O)O[C@@]12CO[C@@H]1C[C@H](O)[C@@]1(C)C(=O)[C@H](O)C3=C(C)[C@@H](OC(=O)[C@H](O)[C@@H](NC(=O)OC(C)(C)C)c4ccccc4)C[C@@](O)([C@@H](OC(=O)c4ccccc4)[C@H]21)C3(C)C [docetaxel],decreased cell proliferation in a dose-dependent manner,significantly lower extent,decreased cell proliferation in a dose-dependent manner,significantly lower extent,decreased cell proliferation in a dose-dependent manner,30 to 50,almost half of the patients,–,–
Oc1ccc(C=Cc2cc(O)cc(O)c2)cc1 [resveratrol],–,–,–,–,–,–,–,increase of apoptosis,decreased expression of clusterin
